Measured values from patent US20240082286A1, “COMBINATION THERAPIES FOR TREATMENT OF T-CELL LYMPHOMAS” (Otsuka Pharmaceutical Co., Ltd., priority 2022, published 2024).

Key:
clAP1 = experiment: Western blotting of BW5147.G.1.4 lysates, clAP1; assay type: cell-based, mouse; settings: 48 hours, when tolinapant was added to decitabine, FIG. 8
Description: After 48 hours, the cell was lysated and interferon signaling and PD markers were analyzed by Western blotting, as shown in FIG. 8. From the western blot, it was confirmed that the expression of DNMT1 was reduced as the concentration of decitabine increased, and the expression of clAP1 was suppressed when tolinapant was added.

CT26 cells = experiment: Lytic cell death by real-time microscopy (IncuCyte) in CT26 control and RIPK3 re-expressed CT26 cells; assay type: cell-based, mouse; settings: 1 μM tolinapant; RIPK3 re-expressed CT26 cells versus CT26 control cells; FIG. 1B
Description: CRISPR activation (CRISPRa) was used to re-express RIPK3 in the CT26 line (from ATCC) (FIG. 1A). […] The lytic cell death upon treatment of tolinapant was measured for the CT26 control cells and the RIPK3 re-expressed CT26 cells, by real-time microscopy (IncuCyte) assays (FIG. 1B).

RIPK3 gene promoter = experiment: Methylation status of RIPK3 gene by pyrosequencing (EpigenDX); assay type: cell-based, human; settings: H9, Karpas-299, Sup-M2, Sup-T1 cell lines; 0.01, 0.1, 1 μM decitabine for 4 days; FIG. 3 B and C
Description: The DNA of human H9, Karpas-299, Sup-M2 (from DSMZ), and Sup-T1 (from ECACC) cell lines were sequenced to identify methylation status of the RIPK3 gene by pyrosequencing (EpigenDX). […] These cell lines were treated with 0.01, 0.1, and 1 μM decitabine (DAC) for 4 days, and DNA of the cells were sequenced to identify methylation status of the RIPK3 gene by pyrosequencing (EpigenDX).

RIPK3 [1] = experiment: RIPK3 expression by western blot after decitabine treatment, Karpas-299 cells; assay type: cell-based, human; settings: 0.01, 0.1, 1 μM decitabine for 4 days, FIG. 2
RIPK3 [2] = experiment: RIPK3 expression by western blot after decitabine treatment, CT26 cells; assay type: cell-based, mouse; settings: 0.01, 0.1, 1 μM decitabine for 2 days, FIG. 2
Description: Two types of mouse cell lines (BW5147.G.1.4, a T cell lymphoma from DSMZ (Braunschweig, Germany) and CT26) were treated with 0.01, 0.1, 1 μM or no decitabine (DAC) for 2 days.

[3] = tested on: KARPAS-299 xenograft mouse model; experiment: Gene expression changes in KARPAS-299 xenografts; assay type: in vivo; settings: treated for five days, FIG. 12
Description: KARPAS-299 xenograft mouse model was prepared by injecting KARPAS-299 cells. The mice bearing the KARPAS-299 xenografts were treated with decitabine (DAC) and/or tolinapant for five days. The tumor cells were collected and analyzed for gene expression changes (FIG. 12).

DNMT1 = experiment: Western blotting of BW5147.G.1.4 lysates, DNMT1; assay type: cell-based, mouse; settings: 48 hours, as the concentration of decitabine increased, FIG. 8
Description: After 48 hours, the cell was lysated and interferon signaling and PD markers were analyzed by Western blotting, as shown in FIG. 8.

LINE-1 = experiment: Methylation level of LINE-1 after decitabine treatment; assay type: cell-based, human; settings: 0.01, 0.1, 1 μM decitabine for 4 days; FIG. 3 D
H9 cells = experiment: IFNγ release, electrochemiluminescence immunoassay (Meso Scale Discovery); assay type: cell-based, human; settings: decitabine alone 0.001-10 μM for 48 hours; FIG. 4
Description: Human T-cell lymphoma (H9) cell line was treated with decitabine (DAC) (0.001, 0.003, 0.01, 0.03, 0.1, 0.3, 1, 3 and 10 μM) for 48 hours, and the release of IFNγ was measured an electrochemiluminescence immunoassay (Meso Scale Discovery). […] Thus, the treatment by decitabine will potentially result in improved response rate to the tolinapant treatment.

RIPK3 [4] = experiment: RIPK3 western blotting of KARPAS-299 xenograft cell lysates; assay type: in vivo, mouse; settings: five days treatment, FIG. 13

Compound | expression of clAP1 (clAP1) | lytic cell death upon treatment of tolinapant (CT26 cells) | methylation of RIPK3 gene promoter (RIPK3 gene promoter) | RIPK3 expression (RIPK3 [1]) | RIPK3 expression (RIPK3 [2]) | gene expression changes in tumor cells [3] | expression of DNMT1 (DNMT1) | methylation of LINE-1 (LINE-1) | IFNγ released from H9 cells (H9 cells) | RIPK3 re-expression by western blotting (RIPK3 [4])
C[C@@H]1CN(CC(=O)N2CC(C)(C)c3nc(CO)c(Cc4ccc(F)cc4)cc32)[C@@H](CN2CCOC[C@H]2C)CN1 [tolinapant, 1-(6-(4-fluorobenzyl)-5-(hydroxymethyl)-3,3-dimethyl-2,3-dihydro-1H-pyrrolo[3,2-b]pyridin-1-yl)-2-((2R,5R)-5-methyl-2-(((R)-3-methylmorpholino)methyl)piperazin-1-yl)ethan-1-one] | suppressed | higher lytic cell death | – | – | – | – | – | – | – | –
Nc1ncn([C@H]2C[C@H](O)[C@@H](CO)O2)c(=O)n1 [decitabine, 5-aza-2′-deoxycytidine] | – | – | demethylation of RIPK3 gene promoter | RIPK3 expression was detected | RIPK3 expression was detected | upregulation of interferons, and other cytokines/chemokines and cancer testis antigens | reduced | demethylation of LINE-1 | increased | re-expression of RIPK3 was also confirmed
